Data on 4 compounds can be found in US20150079029A1, “METHODS AND COMPOSITIONS FOR INHIBITING ANGIOGENESIS” (Oncology Research International Limited, priority 2006, published 2015).

Assay [1] has as its system angiogenesis induced by bFGF in angiosponges. Briefly: AngioSponge assay: bFGF-induced neovascularisation of implanted gelfoam, CD31 staining. It is filed as in vivo, C3H/Hej mice. The note with it: i.p. once daily for 10 days, dioscin 10, deltonin 10, trillin 60, prosapogenin A 20, sorafenib 60 mg/kg; for Average number of blood vessels (CD31 counts): sponges excised Day 11. From the text:
The AngioSponge™ assay enables slow release of agarose-captured growth factor, which stimulates endothelial cell proliferation and migration, and provides a tissue-like matrix for neovascularisation. The assay can be therefore be used to gauge the efficacy of treatments designed to inhibit angiogenesis, determined by counting blood vessels after CD31 immunohistochemical staining of endothelial cells (McCarty et al, International Journal of Oncology, 21:5-10, 2002).
Gelfoams (Pharmacia & Upjohn) were cut into approximately 7×7×7 mm pieces, under sterile conditions, and pre-soaked over night with sterile phosphate buffered saline. The hydrated gelfoams were then partially dried. Growth factor (bFGF) was diluted to an initial concentration of 2 μg/mL in warm (37° C.) 0.4% agarose. The partially dried gelfoams were placed in the growth factor solution, or in warm 0.4% agarose without growth factor, and then transferred to a Petri dish containing warm 0.4% agarose (1:1 dilution, final growth factor concentration 1 μg/mL) for polymerisation and solidification.
70 female C3H/Hej mice were microchipped, weighed and randomised based on body weight into 7 groups with 10 mice per group. For implantation, the mice were anaesthetised by halothane inhalation. A small channel forged with a trocar needle between the 3rd and 4th mammary gland, the sponge was inserted to the full depth of the channel and the incision closed with a wound clip.
The compounds were formulated in N-methylpyrrolidone (NMP):PEG300:Water (1:9:10, v/v). Dosing was established on the basis of in vitro IC50 data and preliminary toxicity studies. Compounds were administered daily by intraperitoneal injection, at a dosing volume of 10 mL/kg, once daily for the study period as shown in Table 5.
Treatment was started when all the animals had recovered fully from anaesthesia, and continued for 10 days. On Day 11, the angiosponges were excised and snap frozen in liquid nitrogen with OCT for CD31 staining on frozen sections.
CD31/PECAM-1 is an antigen present specifically on endothelial cells and can therefore be used as a marker for blood vessels. Frozen samples of the sponge were cryo-sectioned (12 μm), mounted on positively-charged Plus slides (Fisher Scientific), and air-dried for 30 minutes. Frozen sections were in turn fixed in cold acetone, acetone/chloroform (1:1, v/v), and acetone for 5 min each, and then washed with PBS (phosphate buffer saline). After blocking with PBS containing 5% normal horse serum and 1% normal goat serum, sections were incubated with PECAM-1 monoclonal rat anti-mouse CD31 antibody (1:5000 in blocking solution, PharMingen, San Diego, Calif.) for 4 hours at room temperature. The slides were then washed three times with PBS and incubated with adequate secondary anti-rat antibody. Positive reactions were visualized by incubating the slides in stable 3,3′-diaminobenzidine for 5-10 min. The sections were rinsed with distilled water, counter-stained with Gill's haematoxylin for 1 min, and mounted with Universal Mount (Research Genetics). […] Mouse placenta was used as a positive control. For quantification, 3 independent visual fields were chosen and positive stained spots or vessels with lumen were counted.
The Percent Induction for a treatment is the difference in CD31 counts between the treatment (+bFGF) and the vehicle alone (no bFGF), divided by the difference in CD31 counts between the vehicle with bFGF and the vehicle alone (no bFGF), expressed as a percentage.

The subject of assay [2] is angiogenesis induced by bFGF in angiochambers. Briefly: AngioChamber assay: bFGF-induced fibrous capsule formation and haemoglobin (Drabkin) blood content. It is filed as in vivo, FvB mice. The note with it: i.p. once daily for 5 days, dioscin 10, deltonin 10, trillin 60, prosapogenin A 20, sorafenib 60 mg/kg; for Average blood content (from haemoglobin content): Drabkin assay; for Average chamber weight: wet weight on Day 6. From the text:
The AngioChamber™ assay utilises the normal physiological process of wound healing, which promotes the formation of a fibrous capsule around an implanted chamber (Wood et al, (2000) Cancer Research, 60(8):2178-89). The inclusion of bFGF in the chamber induces blood vessel development in the fibrous capsule. The assay therefore assesses the efficacy of treatments by gauging their effect both on the fibrous capsule formation, measured by the wet weight of the capsule at the termination of the study and by determination of blood vessel supply to the chamber by assaying for haemoglobin content. The haemoglobin content of the fibrous capsule is a measure of neovascularisation, which is assayed by the Drabkin Assay.
The angiochambers were porous tissue chambers made of perfluoro-alkoxy-Teflon and filled with 0.8% agar containing 20 IU/mL heparin, with or without 1 μg/mL human bFGF. Both ends of the chamber were sealed with removable caps of the same material. The chambers were filled under sterile conditions with 0.8% agar containing 20 IU/mL heparin, with or without 1 μg/mL human bFGF. The agarose solution was maintained at 37° C. prior to filling the chambers.
70 female FvB mice were microchipped, weighed and randomised based on body weight into 7 groups with 10 mice per group. For implantation, the mice were anaesthetised by halothane inhalation. Approximately 150 μL sterile filtered air was injected subcutaneously in the back of each mouse, between the shoulder blades, resulting in an air pocket in which a small incision was made and the chamber inserted. The wound was closed with two 1.4 mm wound clips.
The treatments, which were all formulated in NMP:PEG300:Water (1:9:10, v/v) and administered daily by intraperitoneal injection, were as given in the Table 7:
Treatment was started when all the animals had recovered fully from anaesthesia, and continued for 5 days. On Day 6, the vascularised fibrous chambers were removed and the wet weight recorded for each implant. The chamber from each mouse was then snap frozen with liquid nitrogen and stored at −20° C. until assessed for haemoglobin content.
The fibrous capsule samples were thawed and kept on ice during the procedure. Sterile water was added to each thawed sample, and the sample homogenised with an UltraTourax at high speed. To avoid cross-contamination, the UltraTourax was flushed for 30 seconds with 5 mL distilled water after homogenising each sample. The homogenate was transferred into 2 mL Eppendorf tubes and stored on ice. The Eppendorf tubes were centrifuged at 4° C. and high speed (14,000 relative centrifugal force (RCF)) for 60 min. 1.0-1.5 mL of the intermediate aqueous solution (homogenate), between the pellet and the fat layer, was then transferred to fresh labelled 1.5 mL Eppendorf tubes and stored on ice. 50 μL of each homogenate was transferred into separate wells of a 96-well plate. 50 μL of water was transferred into 2 wells as blanks. 50 μL of Drabkin's reagent was then added to each well and mixed. After 15 min incubation at room temperature, the absorbance of each sample at 540 nm was measured and the volume of blood for each sample calculated from a standard curve.
The Percent Induction for a treatment is the difference in blood content between the treatment (+bFGF) and the vehicle alone (no bFGF), divided by the difference in blood content between the vehicle with bFGF and the vehicle alone (no bFGF), expressed as a percentage.

With `C[C@@H]1CC[C@@]2(OC1)O[C@H]1C[C@H]3[C@@H]4CC=C5C[C@@H](O[C@@H]6O[C@H](CO)[C@@H](O[C@@H]7O[C@@H](C)[C@H](O)[C@@H](O)[C@H]7O)[C@H](O)[C@H]6O[C@@H]6O[C@@H](C)[C@H](O)[C@@H](O)[C@H]6O)CC[C@]5(C)[C@H]4CC[C@]3(C)[C@H]1[C@@H]2C` [Dioscin, diosgenin Rha2, [Rha4], Glc], in assay [1], the “Percent Induction (CD31 counts relative to vehicle + bFGF minus vehicle alone)” value is recorded as 49% and the “Average number of blood vessels (CD31 counts)” value (shortened to “Average number of blood vessels”) stood at 35. For the same compound, in assay [2], the “Percent Induction (blood content relative to vehicle + bFGF minus vehicle alone)” value came out at 45%, the “Average blood content (from haemoglobin content)” value (“Average blood content” for short) turned out to be 1.24 µL and the Average chamber weight was found to be 0.131 g.
Regarding `C[C@@H]1CC[C@@]2(OC1)O[C@H]1C[C@H]3[C@@H]4CC=C5C[C@@H](O[C@@H]6O[C@H](CO)[C@@H](O)[C@H](O)[C@H]6O[C@@H]6O[C@@H](C)[C@H](O)[C@@H](O)[C@H]6O)CC[C@]5(C)[C@H]4CC[C@]3(C)[C@H]1[C@@H]2C` [Prosapogenin A, diosgenin Rha2, Glc], in assay [1], the “Percent Induction (CD31 counts relative to vehicle + bFGF minus vehicle alone)” value is 29% and the “Average number of blood vessels” value is given as 21. In addition, in assay [2], the “Percent Induction (blood content relative to vehicle + bFGF minus vehicle alone)” value came out at 84%, the “Average blood content” value amounted to 1.92 µL and the Average chamber weight is recorded as 0.389 g.
On to `CNC(=O)c1cc(Oc2ccc(NC(=O)Nc3ccc(Cl)c(C(F)(F)F)c3)cc2)ccn1` [Sorafenib, reference compound], for which, in assay [1], the “Percent Induction (CD31 counts relative to vehicle + bFGF minus vehicle alone)” value was 3% and the “Average number of blood vessels” value is reported as 2. Besides, in assay [2], the “Percent Induction (blood content relative to vehicle + bFGF minus vehicle alone)” value is recorded as 27%, the “Average blood content” value amounted to 0.92 µL and the Average chamber weight amounted to 0.322 g.
The corresponding values for `C[C@@H]1CC[C@@]2(OC1)O[C@H]1C[C@H]3[C@@H]4CC=C5C[C@@H](O[C@@H]6O[C@H](CO)[C@@H](O)[C@H](O)[C@H]6O)CC[C@]5(C)[C@H]4CC[C@]3(C)[C@H]1[C@@H]2C` [Trillin, diosgenin-Glc] are 57%, 41, 58%, 1.46 µL and 0.421 g.
